According to patent US20250002503A1, “OXADIAZASPIRO COMPOUNDS FOR USE IN THE TREATMENT OF MOTONEURON DEGENERATION OR IN NEUROPROTECTION” (ESTEVE PHARMACEUTICALS, S.A., priority 2021, published 2025):
Where two headings read alike, the source gives them in different places.

Key:
[1] = in vivo; design: species or system male SOD1^G93A mice; settings: mouse, ip; for concentration at 15 min: male, SOD1^G93A
Protocol: Plasma levels were determined in the two in vivo models evaluated to be able to associate the pharmacological activity with the levels present in plasma. […] […] […] Results are expressed as mean±standard deviation (n=2-6).

[2] = molecular target: Sig-2R (Homo sapiens, UniProt Q5BJF2); experiment: Affinity for the Sig-2R; format: binding; settings: not shown
Protocol: (§1) A selectivity profile (Spectrum Screen) including a panel with more than 180 binding assays for different receptors, ion channels, transporters and enzymes was performed for compound A and compound B at EurofinsPanlabs according to their specifications.

[3] = test system: rhizotomized mice (L4-L5 spinal nerve section); experiment: L4-L5 spinal roots injury (rhizotomy): MN survival, glial reactivity, tolerability; settings: for number of spinal MNs in the ipsilateral ventral horn (L4-L5) / astroglial reactivity, GFAP integrated density / microglial reactivity, IBA1 integrated density: 42 dpi, mean±SEM
Protocol: Briefly, the L4-L5 spinal roots were exposed by a small laminectomy on the right side. Then, roots were cut at the exit from the intervertebral foramina and the root stumps were separated. Mice were cared until recovery in warm environment.
The compounds were dissolved in 0.5% hydroxypropyl-methylcellulose (HPMC; Sigma-Aldrich) in distilled water. The compounds were administered by intraperitoneal (i.p.) route twice daily (bid) in a volume of 10 ml/kg. Administrations were given from 30 min after rhizotomy surgery until 42 days post-injury (dpi), the end of the study; in the SOD1^G93A study, treatments were given from 8 to 16 weeks of age.
At the end of follow up (42 days post-injury (dpi)) for rhizotomy and 16 weeks of age for ALS mice) the animals were deeply anesthetized and transcardially perfused with 4% paraformaldehyde in PBS. The lumbar spinal cord and the TA muscle were harvested and cryopreserved in 30% sucrose solution in PB. The spinal cords were serially cut in 20 μm-thick transverse sections with a cryostat (Leica). For MN counting, L4-L5 spinal cord sections separated 100 μm were stained for 3 h with an acidified solution of 3.1 mM cresyl violet.
Finally, sides were mounted with Fluoromount G. To quantify glial cell reactivity, images of the ventral horn were acquired with an epifluorescence microscope (Nikon Eclipse Ni, Japan) using the same conditions for each analyzed marker. After defining a threshold for background correction, the integrated density of GFAP or Iba1 labeling was measured using ImageJ software.

[4] = test system: motoneurons (MNs) in spinal cord organotypic cultures; experiment: Spinal cord organotypic cultures (SCOCs) under THA chronic excitotoxicity, SMI-32 positive MN count; format: cell-based, Sprague-Dawley rats; settings: THA 100 μM, 28 DIV
Protocol: Briefly, the spinal cord was collected and cut in 350 μm thick transverse sections with a Mcllwain Tissue Chopper. Four lumbar sections per sample were transferred onto Millicell-CM nets (0.4 μm, PICM03050, Millipore) in medium [50% (v/v) minimal essential medium (MEM, M5775, Sigma), 2 mM glutamine, 25 mM HEPES, 25% (v/v) Hank's Balanced Salt Solution (HBSS^−/−, 14175, Gibco) supplemented with 25.6 mg/ml glucose and 25% (v/v) heat-inactivated horse serum (26050-088, Gibco), pH=7.2]. Cultures were maintained at 37° C. in a 5% CO2 humidified cabin and let to stabilize. After 7 days in vitro (DIV), DL-threo-b-hydroxyaspartic acid (THA; 100 μM) was added to induce chronic excitotoxicity (Rothstein et al., 1993). The neuroprotective effect of each Sig-1R ligand was assessed by its coaddition to the culture with THA and renewing at each medium change. […] In vitro experiments were performed in three independent cultures, with at least 12 different SCOCs for each experimental condition.
Slices were maintained for 28 DIV and then fixed with 4% paraformaldehyde. […] MN survival was assessed by counting all SMI-32 positive neurons in each spinal cord using the Cell Counter plugin of ImageJ software.

[5] = molecular target: human Sig-1R (Homo sapiens, UniProt Q99720); experiment: Affinity for the human Sig-1R; format: binding
Protocol: as §1

[6] = test system: SOD1^G93A mice; settings: for NMJ innervation (proportion of innervated endplates) of hindlimb muscle: SOD1^G93A mice at 16 weeks; for NMJ innervation (proportion of innervated endplates) of hindlimb muscle / astrocyte activation (GFAP) in ventral horn: compounds 5 mg/kg; for NMJ innervation (proportion of innervated endplates) of hindlimb muscle / CMAP amplitude of TA and plantar muscles / astrocyte activation (GFAP) in ventral horn: PRE-084 0.25 mg/kg i.p. bid; for CMAP amplitude of TA and plantar muscles / number of surviving spinal MNs per section / astrocyte activation (GFAP) in ventral horn: SOD1^G93A mice; for CMAP amplitude of TA and plantar muscles: 11 and 13 weeks, compound 5 mg/kg; for number of surviving spinal MNs per section: 16 weeks of age, mean±SEM; for astrocyte activation (GFAP) in ventral horn: 16 weeks
Protocol: Motor nerve conduction tests were performed before the surgery to obtain baseline values and at the end of the follow up in the rhizotomy model, whereas the SOD1^G93A mice were evaluated at 8 weeks (prior to starting drug administration) and then every 2-3 weeks until the end point at 16 weeks of age. The sciatic nerve was stimulated by means of single pulses delivered through needle electrodes placed at the sciatic notch. The compound muscle action potential (CMAP) was recorded from tibialis anterior (TA), gastrocnemius (GM) and plantar interossei muscles with microneedle electrodes (Mancuso et al., 2011). The CMAPs were amplified to measure the latency to the onset and the amplitude from baseline to the maximal negative peak. The mice were anesthetized with pentobarbital (50 mg/kg i.p.) and their body temperature was maintained by means of a thermostated warming pad.
For neuromuscular junctions (NMJ) labeling, 50 μm-thick longitudinal sections of TA muscle were serially cut. Sections were blocked with 5% normal donkey serum and incubated with primary antibodies rabbit anti-synaptophysin (1:500; AB32127, Abcam) and chicken anti-neurofilament 200 (NF200, 1:1000; AB5539, Millipore, USA) 48 h at 4° C. After washes, sections were incubated overnight with secondary antibody Alexa Fluor 594-donkey anti-rabbit and anti-chicken (1:200; A11042-A21207, Invitrogen, USA) and Alexa 488 conjugated α-bungarotoxin (1:500; B13422, Life Technologies, USA). Confocal images were captured (LSM 700 Axio Observer, Carl Zeiss, 40×Oil/z0.5) and the maximum projection images generated from 1.3 μm z projections. The proportion of innervated NMJs was calculated by classifying each endplate as occupied (when presynaptic terminals overly the endplate) or vacant (no presynaptic label in contact with the endplate). At least 60 endplates were analyzed per muscle.

[7] = Pharmacokinetics in plasma and brain after single i.p. dose; settings: for half-life: t1/2 (terminal half-life); for half-life / AUC, brain / Cmax, brain / penetration into the brain: single i.p. 10 mg/kg; for half-life / AUC, brain / Cmax, brain: female mice; for penetration into the brain: mice
Protocol: (§2) Blood and brain samples were extracted at selected time points (15 min, 1, 3 and 6 h) from two animals per sampling point. Blood samples were collected by intracardiac puncture into heparinized tubes. Plasma was obtained by blood centrifugation at 4° C. and 2280 g for 10 min. Plasma and brain samples were kept at −80° C. until analysis. Brains were homogenized with Dulbecco's phosphate saline buffer pH 7.4 (4 ml/g tissue). Plasma and brain samples were assayed by ultra-performance liquid chromatography-triple quadrupole mass spectrometry (UPLC-MS/MS) after protein precipitation. Standard pharmacokinetic parameters, such as the area under the curve (AUC), peak plasma concentration (Cmax), time to peak concentration (tmax), and terminal half-life (t1/2) were determined by noncompartmental analysis of the plasma and brain concentration-time curves (Phoenix v.6.2.1.51, Pharsight, CA).

[8] = in vivo; settings: female, C57-BL6, mouse, ip, 10 mg/kg; for half-life: t1/2 (terminal half-life)
Protocol: as §2

[9] = Plasma levels in the rhizotomy model after chronic i.p. administration; design: species or system female mice (B6SJL); settings: mouse, in vivo, ip, 0.25 mg/kg
[10] = cited from earlier work
[11] = 0.5 mg/kg bid i.p., not significant
[12] = 5 mg/kg bid i.p., untreated 19×10^4±5×10^4
[13] = 5 mg/kg bid i.p., untreated 26×10^4±3×10^4
[14] = twice daily i.p. administration for 6 weeks
[15] = 5 mg/kg i.p. bid, untreated 6.9±0.5, WT 25.3±0.5
[16] = female, C57-BL6, mouse, brain, ip, 10 mg/kg
[17] = female, C57-BL6, mouse, plasma, ip, 10 mg/kg

human Sig-1R, sequence (Q99720 whole entry): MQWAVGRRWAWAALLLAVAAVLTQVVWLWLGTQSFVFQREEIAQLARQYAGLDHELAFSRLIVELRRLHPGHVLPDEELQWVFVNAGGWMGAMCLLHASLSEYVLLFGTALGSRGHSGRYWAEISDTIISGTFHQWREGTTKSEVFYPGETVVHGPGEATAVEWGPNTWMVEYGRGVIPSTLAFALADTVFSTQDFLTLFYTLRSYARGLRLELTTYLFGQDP
Sig-2R, sequence (Q5BJF2 whole entry): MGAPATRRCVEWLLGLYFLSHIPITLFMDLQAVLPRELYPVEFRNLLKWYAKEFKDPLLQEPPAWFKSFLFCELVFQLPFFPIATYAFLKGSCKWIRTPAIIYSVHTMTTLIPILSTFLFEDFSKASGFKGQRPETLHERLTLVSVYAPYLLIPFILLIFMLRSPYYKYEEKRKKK

Row | SMILES | concentration at 15 min ([1]; 5 mg/kg) [ng/mL] | IC50 [2] [µM] | number of spinal MNs in the ipsilateral ventral horn (L4-L5) [3, 11] | astroglial reactivity, GFAP integrated density [3, 12] | microglial reactivity, IBA1 integrated density [3, 13] | toxicity on chronic administration [3, 14] | affinity for the human Sig-1R [5] | NMJ innervation (proportion of innervated endplates) of hindlimb muscle [6] | CMAP amplitude of TA and plantar muscles [6] | number of surviving spinal MNs per section [6, 15] | astrocyte activation (GFAP) in ventral horn [6] | AUC, brain ([7]; brain) [ng·h/g] | Cmax, brain ([7]; brain) [ng/g] | penetration into the brain [7] | further results
1 | C[C@@H]1OC2(CCN(Cc3ccc(F)cc3)CC2)CN(C)C1=O [Compound A, (S)-9-(4-fluorobenzyl)-2,4-dimethyl-1-oxa-4,9-diazaspiro[5.5]undecan-3-one] | ~500 | > 10 | 7.6±0.9 | 4×10^4±0.4×10^4 | 13×10^4±2×10^4 | did not cause toxicity | high affinity | tendency to preserve NMJ innervation | significantly prevented the decline in amplitude of the CMAP | 10.8±1.1 | significant decrease of astrocyte activation | 4873 | 5405 | good penetration into the brain | estimated brain concentration ([1]; 5 mg/kg): about two-fold the concentration of compound B; number of spinal MNs in the ipsilateral ventral horn (L4-L5) ([3]; 5 mg/kg/bid i.p. for 6 weeks, untreated injured 6.8±0.3): 8.6±0.6; number of SMI-32 positive neurons vs THA condition ([4]; tested at 0.03, 0.3, 3 and 30 μM, significant at three concentrations): significantly more SMI-32 positive neurons; Kp ([7]; female, C57-BL6, mouse, brain and plasma, ip, 10 mg/kg): 4.4; Tmax [7, 16]: 0.25 h; half-life [7, 16]: > 5 h; AUC [7, 17]: 1120 ng·h/mL; Cmax [7, 17]: 1350 ng/mL; Tmax [7, 17]: 0.25 h; half-life [7, 17]: > 5 h
2 | CCN1CC2(CCN(Cc3ccc(C#N)c(F)c3)CC2)O[C@@H](C)C1=O [Compound B, (S)-4-((4-ethyl-2-methyl-3-oxo-1-oxa-4,9-diazaspiro[5.5]undecan-9-yl)methyl)-2-fluorobenzonitrile] | ~500 | > 10 | 7.4±0.7 | 15×10^4±2.7×10^4 | 25×10^4±4×10^4 | did not cause toxicity | high affinity | tendency to preserve NMJ innervation | – | 8.5±1.0 | significant decrease of astrocyte activation | 1698 | 2652 | good penetration into the brain | AUC [8]: 802 ng·h/mL; Cmax [8]: 1340 ng/mL; Kp [8]: 2.1; Tmax [8]: 0.25 h; half-life ([8]; brain): 3.4 h; half-life ([8]; plasma): 2.2 h; body weight compared with the vehicle group [3, 14]: no difference in body weight; preservation of MNs (SMI-32 positive) vs THA condition ([4]; 3 and 30 μM): significantly preserved MNs
3 | O=C(OCCN1CCOCC1)C1(c2ccccc2)CCCCC1 [PRE-084, reference compound] | – | – | – | – | – | – | good affinity | significantly increased the proportion of innervated endplates | higher CMAP amplitude values | – | significant decrease of astrocyte activation | – | – | – | Plasma concentration 30 min post-administration ([1]; 0.25 mg/kg): 2.6 ng/mL; Plasma concentration 30 min post-administration [9]: 3.6 ng/mL; Cmax, plasma ([10]; mouse, in vivo, ip, 10 mg/kg): 659 ng/mL; Cmax, brain ([10]; single i.p. 10 mg/kg, concentration at 5 min post-administration, brain): 774 ng/g; astroglial reactivity, GFAP integrated density ([3]; 0.25 mg/kg bid i.p.): 6×10^4±0.9×10^4; microglial reactivity, IBA1 integrated density ([3]; 0.25 mg/kg bid i.p.): 15×10^4±1.4×10^4; number of spinal MNs in the ipsilateral ventral horn (L4-L5) ([3]; 0.25 mg/kg bid i.p., positive control): 8.9±0.4; number of surviving spinal MNs per section ([6]; 0.25 mg/kg i.p. bid): 12.4±0.9
